According to patent US12527873B2, “Glycocalyx mimetic coatings” (The Regents of The University of California, priority 2019, dated 2026):

How the values were obtained:
E-selectin [1] = target: T1, E-selectin (Homo sapiens, UniProt P16581); assay: PMN binding to E-selectin coated microspheres (flow cytometry); type: cell-based; set-up: purchased R&D Systems; conditions: IkL peptide 450 μM, DS-IkL15 30 μM; p<0.05; FIG. 9
T1 sequence (P16581 22-610): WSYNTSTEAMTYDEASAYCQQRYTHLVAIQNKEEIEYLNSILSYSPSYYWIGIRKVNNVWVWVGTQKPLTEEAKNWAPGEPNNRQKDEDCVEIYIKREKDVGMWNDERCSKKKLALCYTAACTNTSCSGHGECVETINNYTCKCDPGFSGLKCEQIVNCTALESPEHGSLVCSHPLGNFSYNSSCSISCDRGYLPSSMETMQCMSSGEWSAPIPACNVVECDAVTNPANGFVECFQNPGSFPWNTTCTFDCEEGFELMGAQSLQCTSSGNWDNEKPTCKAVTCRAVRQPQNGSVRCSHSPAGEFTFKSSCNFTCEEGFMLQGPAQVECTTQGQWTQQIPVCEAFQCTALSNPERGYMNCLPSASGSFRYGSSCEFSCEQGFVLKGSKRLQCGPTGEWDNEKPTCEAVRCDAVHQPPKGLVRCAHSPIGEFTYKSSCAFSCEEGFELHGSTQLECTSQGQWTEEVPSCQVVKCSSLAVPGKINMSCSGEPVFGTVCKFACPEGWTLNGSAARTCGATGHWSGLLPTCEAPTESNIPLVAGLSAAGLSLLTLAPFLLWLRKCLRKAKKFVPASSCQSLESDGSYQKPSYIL
Experimental: To validate the new molecule, fluorescent carboxylate microspheres were coated with recombinant human E-selectin (R&D Systems, Minneapolis, MN) using a PolyLink coupling kit (PolySciences Inc., Warrington, PA). Functionalized microspheres were treated with HBSS^+/+, EC-SEAL (30 μM), DS-IkL10 (30 μM), DS-IkL15 (30 μM), or GMI-1070 ([…]) for one hour. During this time, human neutrophils were isolated from whole blood using an established protocol. Briefly, 6 mL of whole blood were collected into an EDTA coated tube in accordance with the UC Davis Internal Review Board under IRB assurance No. 00004557. Neutrophils were isolated using an EasyStep Direct Human Neutrophil Isolation Kit (Stem Cell Technologies, Vancouver, BC, Canada), centrifuged, and resuspended in HBSS^+/+, with 0.1% human serum albumin (HSA) at 1×10^6 cells/mL. Cells were labeled with fluorescently tagged anti-CD15 for detection. Microspheres were pelleted and resuspended in 100 uL labeled neutrophils, then incubated for 30 minutes at room temperature with rotation (150 rpm). Samples were fixed in 4% PFA and read on an Attune NxT Flow Cytometer. Data was analyzed using FlowJo flow cytometry software (San Diego, Calif.) to determine the top three performing variants. This was repeated 2-6 times for an n of 3-7. […]

[2] = tested on: stimulated human cardiac microvascular endothelial cells (HCMECs); assay: Platelet activation on stimulated HCMECs (NAP-2, PF-4 in supernatant); type: cell-based; conditions: DS-IkL 30 μM, IkL peptide 450 μM, DS 30 μM, platelets 1 hour on TNF-α/IL-1β stimulated HCMECs
From the text: Enhanced platelet activation and binding have been implicated in a multitude of chronic inflammatory diseases, including acute coronary and pulmonary syndromes (Lisman, T, Cell Tissue Res. 2018; 371(3):567-576). Activated platelets release cytokines such as platelet factor 4 (PF-4) and neutrophil activating peptide 2 (NAP-2) that can in turn activate neutrophils (Pitchford, S., D. Pan, and H. C. Welch. Curr. Opin. Hematol. 2017; 24(1):23-31). To test if treatment of inflamed endothelial cells with DS-IkL could reduce the activation of platelets as assessed by PF-4 and NAP-2 levels, platelets were allowed to interact with stimulated human cardiac microvascular endothelial cells (HCMECs, PromoCell) under standard culture conditions for 1 hour before supernatant was collected. Stimulation media was prepared by diluting to 0.4 ng/ml tumor necrosis factor alpha (TNF-α) and 0.3 ng/ml interleukin 1 beta (IL-1β) in complete endothelial growth medium MV (PromoCell).

E-selectin [3] = target: T1, E-selectin; assay: Binding to E-selectin coated surfaces (fluorescently tagged molecule, MFI); conditions: increasing concentrations; MFI normalized to vehicle (HBSS); FIG. 6
Experimental: (§1) P- and E-selectin coated surfaces were treated with fluorescently tagged DS-IkL (30 μM, empty bars) or DS (30 μM, filled bars). […] Data are represented as means±SEM. *p<0.05, **p<0.01, ***p<0.001. n=3 independent experiments.

P-selectin = target: T2, P-selectin (Homo sapiens, UniProt P16109); assay: Binding to P-selectin coated surfaces (fluorescently tagged molecule, MFI); conditions: increasing concentrations; MFI normalized to vehicle (HBSS); FIG. 6
T2 sequence (P16109 42-830): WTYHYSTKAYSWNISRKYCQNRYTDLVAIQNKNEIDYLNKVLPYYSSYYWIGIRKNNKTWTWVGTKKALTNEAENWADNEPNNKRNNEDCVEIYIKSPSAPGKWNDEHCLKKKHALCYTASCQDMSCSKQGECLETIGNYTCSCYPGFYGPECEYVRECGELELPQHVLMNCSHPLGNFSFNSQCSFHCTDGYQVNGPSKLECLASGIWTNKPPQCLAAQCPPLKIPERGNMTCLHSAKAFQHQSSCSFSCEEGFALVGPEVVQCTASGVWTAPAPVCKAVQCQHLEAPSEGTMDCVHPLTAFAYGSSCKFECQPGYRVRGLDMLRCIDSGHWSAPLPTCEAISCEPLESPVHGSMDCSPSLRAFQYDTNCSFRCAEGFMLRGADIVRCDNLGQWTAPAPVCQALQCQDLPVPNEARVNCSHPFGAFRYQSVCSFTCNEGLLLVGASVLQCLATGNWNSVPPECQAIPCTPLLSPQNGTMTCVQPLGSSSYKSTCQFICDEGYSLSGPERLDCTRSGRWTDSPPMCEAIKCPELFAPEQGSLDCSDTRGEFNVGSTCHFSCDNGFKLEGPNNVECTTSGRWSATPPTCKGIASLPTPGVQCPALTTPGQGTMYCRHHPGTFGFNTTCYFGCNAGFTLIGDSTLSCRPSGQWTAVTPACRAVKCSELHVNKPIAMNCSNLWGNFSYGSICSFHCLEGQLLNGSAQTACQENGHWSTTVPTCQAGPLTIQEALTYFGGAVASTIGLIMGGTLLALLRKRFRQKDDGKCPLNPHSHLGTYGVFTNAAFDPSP
Experimental: as §1

Row | Substance | neutrophil adhesion to microspheres (E-selectin [1]) | platelet activation as assessed by NAP-2 ([2]; FIG. 7) | platelet activation as assessed by PF-4 ([2]; FIG. 8) | binding to E-selectin coated surfaces (E-selectin [3]) | binding to P-selectin coated surfaces (P-selectin)
1 | Ile-(D)lys-Leu-Leu-(D)pro-Hyp-Arg [IkL peptide] | approximately 75 % of control | reduced | reduced | – | –
2 | dermatan sulfate [DS] | – | – | – | not observed in the DS group | not observed in the DS group
